US12404526B2, “Enhancing agents for improved cell transfection and/or rAAV vector production” (priority 2017, dated 2025)

System: HEK 293F cells
Experiment: rAAV-FVIII vector production by PEI-transfected HEK 293F cells with enhancing agents, vector genome titer by Q-PCR
Type: cell-based, human
Procedure: Cell Culture: FreeStyle™ 293F (HEK 293F) cells purchased from Thermo Fisher Scientific (R79007) were cultured in FreeStyle™ F17 (F17) expression medium (Thermo Fisher Scientific, A1383501) supplemented with 1× GlutaMAX™ (Thermo Fisher Scientific, 35050-061) and 1× Antibiotic-antimycotic (Thermo Fisher Scientific, 15240). Cells were cultured in spinner flasks (Corning, 3152 or 3153), shake flask (Corning 431143, or 431145) or bioreactors. For spinner/shake flask, cells were cultured at 37° C. incubator with 170 rpm agitation and a humidified atmosphere of 8% CO2; for bioreactors (Eppendorf, DASGIP Parallel Bioreactor system, glass vessels and single use vessels), cell culture was controlled by programed parameters, (DO 40%, pH 7.2, agitation at 130 rpm, 150 rpm or 170 rpm). Typically, cells were seeded at 0.25-0.5×10^6/mL, subcultured every 2-3 days by adding fresh cell culture medium when cell density reached approximately 2-3×10^6/mL. Cell density and viability were determined using a Vi-cell™ XR cell viability Analyzer (Beckman Coulter).
Plasmids: Three plasmids were used to produce recombinant adeno-associated viral vectors (rAAV): 1) Transgene plasmid containing hFVIII flanked by ITRs, 2) A packaging plasmid containing rep and cap genes, 3) An adenoviral helper plasmid containing adenovirus E2, E4 and VARNA genes. All plasmids were purchased from and manufactured by Aldevron.
Preparation of PEI solutions: Linear polyethylenimine (PEI) “Max” 40 KDa (Polysciences, 24765-2, hydrochloride salt of the linear PEI 25 KDa) was used as transfection reagent. For transfection optimization studies, PEI “Max” was dissolved in 5 mM Tris to make a 0.5 mg/mL solution and the solution was adjusted to different pH, including pH7.0, 7.1, 7.2, 7.3, 7.4, 7.6, 7.8, or 8.0. After several studies, PEI solution at pH 7.1 was selected for all studies if not specified because of the best transfection and rAAV production.
Using enhancing agents in PEI-mediated transfection: The potential transfection enhancing agents evaluated for their effect on transfection and rAAV production were enhancer 1 and 2 in ExpiFectamine™ 293 Transfection Kit (Thermo Fisher Scientific, A14525), P3000 reagent in Lipofectamine® 3000 Transfection Kit (Thermo Fisher Scientific, L3000015), enhancer in Effectene™ Transfection Reagent Kit (Qiagen, 301427). Also studied were a variety of compounds including valproic acid, etoposide, teniposide, siomycin A and vorinostat to test their effectiveness on PEI cell transfection and rAAV production.
HEK 293F cells were grown in F17 medium plus 1× GlutaMAX™ Supplement and 1× Antibiotic-antimycotic in spinner flasks or shake flasks. The day before transfection, cells were seeded at 0.5-2×10^6 cells/mL by adding fresh medium. After 24 hr, cells were transfected at a cell density of 1-4×10^6 cells/mL. Three plasmids for transfection, hFVIII, Rep/cap, Ad2 helper, were used at a molar ratio of 1:1:1, 0.5:1:1 and 1:2:2, and at weight ratio of 0.75:0.75:0.75, 1:1:1 and 1.5:1.5:1.5. The total DNA amount used for transfection was from 0.5 to 4.2 μg per mL of cell culture volume. PEI/DNA complex was prepared with different weight ratios of PEI and DNA, at 1:1, 1.5:1, 2:1, 2.5:1 and 3:1, incubated at room temperature for 1, 5, 10, 15, 20, 25 and 30 minutes, then the DNA/PEI complexes were added to the cell culture. Free PEI (without DNA) from 0.5 to 5.6 μg/mL was added to the cell culture immediately after DNA/PEI complexes. Enhancing agents were added directly to the cells at the time of transfection or 24 hr before transfection or 16-18 hr after transfection. Different amounts of enhancing agents were studied. Samples, including cells and cell culture media, were taken at 48 and 72 hr post transfection for cell count and cell viability and cell culture was harvested at 72 hr post transfection. […]

CCCC(CCC)C(=O)O [valproic acid]
rAAV vector production, fold higher than in the absence of valproic acid (2 mM at transfection, spinner flask, 1.2 μg/mL DNA, PEI/DNA 2:1, 1.5 μg/mL free PEI, FIG. 7): 10 fold | AAV vector production at increased valproic acid concentrations (1L bioreactor culture, 4 mM or higher, such as 5-8 mM, FIG. 8): improved | AAV vector production, fold higher compared with 2 mM of valproic acid (>4 mM (up to 8 mM) at transfection, 1 L bioreactor, PEI/DNA 2.5, FIG. 8): 1.2-1.8 fold | effect on rAAV productivity (compound screen) (added at transfection, PEI-mediated transfection): significantly increased | rAAV-FVIII vector titer, fold increase compared to that without any enhancers (optimized PEI-mediated transfection, serum-free suspension culture, 0.25-10 mM tested, FIG. 7): around 10 fold | rAAV productivity level compared with enhancer 1 and 2 (optimized PEI-mediated transfection, serum-free suspension culture, FIG. 7): same rAAV productivity level or higher | rAAV vector productivity, fold higher than the currently reported production protocol using similar technologies (used alone in the optimized PEI-based transfection method): about 10 fold
